Measurements published in patent US20050060100A1, “Computer software and algorithms for systems biologically linked to cellular phenotype” (Becton Dickinson and Company, priority 2003, published 2005).

Tested on: MC3T3-E1 osteoblast cells
Assay: ECM screen: adhesion of MC3T3-E1 cells to immobilized adhesion ligands (fluorescent nuclei count)
Format: cell-based
Details: "best factors" approach
Source text: A statistical design was developed with special consideration of the surface chemistry requirements. In particular, in this experiment the scenario shown in FIG. 9 was used, wherein the overall adhesion ligand density was kept constant from well to well and only the adhesion ligand composition was allowed to change. In other words, the concentration of a single adhesion ligand could be different from well to well, but each well has the same amount of adhesion ligand immobilized overall. This scenario is further described above. An example of such design is shown in the spreadsheet in FIG. 10. The spreadsheet serves as a computer representation of the design which is stored in a database. The top row in […] lists the 10 factors […] used in this particular screen, and their corresponding identities. In the spreadsheet shown, Factor A represents fibronectin, Factor B represents Collagen I, etc. The first column is a list of the experimental points that translate into a well in the 96-well plate, e.g., 52 wells in this case. The numbers in the spreadsheet are the factor levels. In this example, these levels are the actual volumes (in μL) of factor that are added to a particular well. In this particular design, factors get added to the wells at three volumes, e.g., 5 μL, 25 μL, or 50 μL. The total well volume in this case is 50 μL. Thus, for wells where one factor is added at 50 μL, the final well composition will comprise a single adhesion ligand covalently immobilized on the well surface. Accordingly, if 25 μL of a factor is added to a well, a second factor is added at 25 μL also, and the final well composition will comprise a mixture of two different cell adhesion ligands covalently immobilized on the well surface. When 5 μL of a factor are added, nine other factors are added at 5 μL each, as well, thus resulting in wells that comprise a mixture of all 10 cell adhesion ligands on the well surface. These experimental points containing all 10 adhesion ligands are called “mid points” and are an integral part of the statistical design in this example.
With reference now to FIG. 11, a 96-well plate layout is shown, which was translated from the particular statistical design shown in FIG. 10. In particular, the 96-well plate includes the well compositions indicated in FIG. 10, e.g., cell adhesion ligand combinations immobilized at the bottom of each well. In particular, the experimental runs in FIG. 10 correspond to rows/columns in FIG. 11, as follows: runs 1-10 in the design in FIG. 10 represent row B, columns 2-11, respectively on the array in FIG. 11; runs 11-20 represent row C, columns 2-11; runs 21-30 represent row D, columns 2-11; runs 31-40 represent row E, columns 2-11; runs 41-50 represent row F, columns 2-11; and runs 51 and 52 represent row G, columns 2 and 3, respectively. As shown by the statistical design in FIG. 10 and the corresponding 96-well plate layout in FIG. 11 it is an embodiment of the present invention that, in addition to mixtures of agents, single agents can be placed in the receptacles.
Cells were removed from cell culture flasks using trypsin-EDTA according to methods well known in the art. Cells were enumerated, spun down and resuspended in media containing no serum or, alternatively, in media containing 10% fetal calf serum. Cells were plated into the wells of a 96-well microarray according to the layout shown in FIG. 11 and described in Example 3 above. The seeding density was about 10,000 cells per well. Cells were incubated on the plates overnight at 37° C. The following day, media and any cells not adhering to the immobilized agents on the well surfaces were removed. Any adhered cells were fixed by exposure to forrnalin for at least 15 minutes. Propidium iodite was used to fluorescently label the nuclei of said fixed adhered cells. […]

[1] = no serum, FIG. 14, deviation from mid-point reference blend

laminin
effect on cell count (mixture-model analysis) (10% serum, FIG. 15): positive effect on cell count | effect on cell count (mixture-model analysis) [1]: increase the cell count

poly-L-lysine [reference compound]
effect on cell count (mixture-model analysis) (10% serum, FIG. 15): diminishes | effect on cell count (mixture-model analysis) [1]: marginal effect

Collagen IV
effect on cell count (mixture-model analysis) (10% serum, FIG. 15): positive effect on cell count | effect on cell count (mixture-model analysis) [1]: increase the cell count
